We go through nine molecules from patent US20220041647A1, “ESTRA-1,3,5(10)-TRIENE COMPOUNDS CONDENSED IN POSITION 16(17) WITH A PYRAZOLE RING AS INHIBITORS OF 17-HSD1” (FORENDO PHARMA LTD, priority 2018, published 2022).

What all share (format): biochemical
Experiment [1] concerns HSD1 enzyme that is expressed in rabbit placenta tissue. The experiment is described as follows: Inhibition of E1 to E2 conversion in rabbit placenta tissue homogenate. The settings on record: compound 100 nM, 30 nM estrone, 1 mM β-NADPH, 30 min. How it is done:
The assay is based on an enzymatic reaction where HSD1 enzyme that is expressed in rabbit placenta tissue converts its natural substance estrone (E1) to estradiol (E2) in the presence of a co-factor β-NADPH.
Homogenization of rabbit placenta tissue: Weight a piece of the frozen tissue into a Precellys ck28 bead tube. Add buffer solution (20 mM KH2PO4 with 1 mM EDTA, pH 7.4) in 1:2 ratio (e.g. 300 mg of tissue:600 μl reaction buffer solution). Insert the bead tubes to homogenizer and homogenize 2×30 s. 6000 rpm.
Centrifugated 5 min., 2600 rpm at +4° C. and collect supernatant. Aliquots of homogenate are stored in −80° C.
Assay—Inhibition of E1 to E2 conversion in rabbit placenta tissue: The reaction takes place in a buffer solution (20 mM KH2PO4 with 1 mM EDTA, pH 7,4), including appropriate amount of rabbit placenta homogenate, co-factor (1 mM β-NADPH), Substrate (30 nM estrone), labelled substrate as tracer (5 nM [^3H]-estrone), and the potential inhibitor at concentrations 1 μM or 0.1 μM. Inhibitor stock solutions were prepared in DMSO. Final concentration of DMSO was adjusted to 1% in all samples. During a 30-minute incubation part of the estrone is converted to estradiol. The reaction is stopped by lowering the pH to 1 with 10% trichloro acetic acid (TCA). The substrate and conversion products are analyzed by HPLC and a Scintillation counter analyzer. Total radioactivity for estrone and estradiol were determined in each sample and percent conversion of estrone to estradiol was calculated according to the following formula:
% conversion=100×{(cpm estradiol in sample with inhibitor)/[(cpm estrone in sample with inhibitor)+(cpm estradiol in sample with inhibitor)]}/{(cpm estradiol in sample without inhibitor)/[(cpm estrone in sample without inhibitor)+(cpm estradiol in sample without inhibitor)]}.
(§1) Percent inhibition was calculated followingly: % inhibition=100−% conversion.

Experiment [2] deals with T1, recombinant human 17β-HSD2 (Homo sapiens, UniProt P37059).
T1 construct: made in house; host or cells: Sd9 (Sf9) insect cells, baculovirus (Bac to Bac Expression System)
T1 sequence (P37059 1-387): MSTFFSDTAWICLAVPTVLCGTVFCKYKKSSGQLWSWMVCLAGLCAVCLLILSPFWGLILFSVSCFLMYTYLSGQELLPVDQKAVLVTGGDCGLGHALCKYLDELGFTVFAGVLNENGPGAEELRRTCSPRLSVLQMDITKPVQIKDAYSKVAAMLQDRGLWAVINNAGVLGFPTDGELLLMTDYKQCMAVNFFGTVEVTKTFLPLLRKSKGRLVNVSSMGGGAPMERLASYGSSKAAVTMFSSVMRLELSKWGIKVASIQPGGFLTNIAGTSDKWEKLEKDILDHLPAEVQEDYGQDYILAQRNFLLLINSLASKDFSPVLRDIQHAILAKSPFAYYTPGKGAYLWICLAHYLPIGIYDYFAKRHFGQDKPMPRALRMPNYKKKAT
The experiment can be described thus: Inhibition of recombinant human 17β-HSD2 (estradiol to estrone conversion, HPLC/radioactivity). The settings on record: compound 1 μM; 50 nM estradiol, 1 mM NADH, 30 min RT. As to the method:
17β-HSD2 production and isolation: Similarly to 173-HSD1 the Recombinant baculovirus was generated by the “Bac to Bac Expression System” (Invitrogen). Recombinant bacmid was transfected to Sd9 insect cells using “Cellfectin Reagent” (Invitrogen). 60 h later cells were harvested and supernatant were fractionated by the following protocol: • cells were dissolved into 40 ml of A-buffer (40 mM TRIS, pH8.0, 20% glycerol, 20 μM NAD, 0.4 mM PMSF, 150 mM NaCl, 0.5% dodecyl-β-maltoside+protease inhibitor cocktail) • cells were sonicated • lysate was incubated on ice for 15 min • lysate was centrifuged 5000 rpm 15 min, +4° C. • centrifugation of the supernatant 180 000 g 30 min, +4° C. • pellet was dissolved into 8 ml of A-buffer • not resuspended material was removed by centrifugation 5000 rpm 15 min, +4° C. • the clear supernatant was divided into 100 μl aliquots and were stored frozen until determination of enzymatic activity.
The amount of 173-HSD2 was analysed by immunoblotting and total protein concentration of each extract batch was determined.
Assay—Inhibition of recombinant human 17β-HSD2: Recombinant protein (4 μg/ml) was incubated in 20 mM KH2PO4 pH 8.5 with 50 nM estradiol (including 800 000 cpm/ml of ^3H-estradiol) and 1 mM NADH for 30 min at RT, in the presence of the potential inhibitor at concentrations 1 μM or 0.1 μM. Inhibitor stock solutions were prepared in DMSO. Final concentration of DMSO was adjusted to 1% in all samples. The enzyme reaction was stopped by addition of 10% trichloroacetic acid (final concentration). Samples were centrifuged in a microtiter plate at 4000 rpm for 10 min. Supernatants were applied to reverse phase HPLC on a Waters Symmetry C18 column, equipped with a Waters Sentry Guard column. Isocratic HPLC runs were performed at RT at a flow rate of1 ml/min in acetonitrile:water 48:52 as running solvent. Radioactivity was monitored in the eluate by a Scintillation Analyzer. Total radioactivity for estrone and estradiol were determined in each sample and percent conversion of estradiol to estrone was calculated according to the following formula:
% conversion=100×{(cpm estrone in sample with inhibitor)/[(cpm estradiol in sample with inhibitor)+(cpm estrone in sample with inhibitor)]}/{[(cpm estrone in sample without inhibitor)/[(cpm estradiol in sample without inhibitor)+(cpm estrone in sample without inhibitor)]}.
as §1

The target in experiment [3] is T2, recombinant human 17β-HSD1 (Homo sapiens, UniProt P14061).
T2 construct: made in house; host or cells: Sd9 (Sf9) insect cells, baculovirus (Bac to Bac Expression System)
T2 sequence (P14061 1-328): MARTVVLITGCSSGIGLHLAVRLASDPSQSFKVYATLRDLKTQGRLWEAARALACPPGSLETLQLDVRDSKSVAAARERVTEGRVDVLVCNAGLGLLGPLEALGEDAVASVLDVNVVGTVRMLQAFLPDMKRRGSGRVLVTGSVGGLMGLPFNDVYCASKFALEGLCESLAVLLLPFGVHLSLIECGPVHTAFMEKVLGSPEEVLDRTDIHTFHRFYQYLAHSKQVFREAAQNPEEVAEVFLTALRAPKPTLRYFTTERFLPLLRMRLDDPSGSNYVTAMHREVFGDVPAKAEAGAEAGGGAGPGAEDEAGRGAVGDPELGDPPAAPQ
The experiment can be described thus: Inhibition of recombinant human 17β-HSD1 (estrone to estradiol conversion, HPLC/radioactivity). The settings on record: compound 100 nM; 30 nM estrone, 1 mM NADPH, 30 min RT. As to the method: 17β-HSD1 production and isolation: Recombinant baculovirus was generated by the “Bac to Bac Expression System” (Invitrogen). Recombinant bacmid was transfected to Sd9 insect cells using “Cellfectin Reagent” (Invitrogen). 60 h later cells were harvested; the microsomal fraction was isolated as described by Puranen, T. J., Poutanen, M. H., Peltoketo, H. E., Vihko, P. T. and Vihko, R. K. (1994) Site-directed mutagenesis of the putative active site of human 17 β-hydroxysteroid dehydrogenase type 1. Biochem. J. 304: 289-293. Aliquots were stored frozen until determination of enzymatic activity.
Assay—Inhibition of recombinant human 17β-HSD1: Recombinant protein (1 μg/ml) was incubated in 20 mM KH2PO4 pH 7.4 with 30 nM estrone (including 800 000 cpm/ml of ^3H-estrone) and 1 mM NADPH for 30 min at RT, in the presence of the potential inhibitor at concentrations 1 μM or 0.1 μM. Inhibitor stock solutions were prepared in DMSO. Final concentration of DMSO was adjusted to 1% in all samples. The enzyme reaction was stopped by addition of 10% trichloroacetic acid (final concentration). Samples were centrifuged in a microtiter plate at 4000 rpm for 10 min. Supernatants were applied to reverse phase HPLC on a Waters Symmetry C18 column, equipped with a Waters Sentry Guard column. Isocratic HPLC runs were performed at RT at a flow rate of 1 ml/min in acetonitrile:water 48:52 as running solvent. Radioactivity was monitored in the eluate by a Scintillation Analyzer. Total radioactivity for estrone and estradiol were determined in each sample and percent conversion of estrone to estradiol was calculated according to the following formula:
% conversion=100×{(cpm estradiol in sample with inhibitor)/[(cpm estrone in sample with inhibitor)+(cpm estradiol in sample with inhibitor)]}/{[(cpm estradiol in sample without inhibitor)/[(cpm estrone in sample without inhibitor)+(cpm estradiol in sample without inhibitor)]}.
as §1

By inhibition is commonly meant the change of the read-out against control, counted positive when it falls. With `Cc1ccc(NC(=O)CC[C@@H]2c3c[nH]nc3[C@@]3(C)CCC4c5cccc(F)c5CCC4C23)nn1` (stereo partly drawn) [Compound 228, 3-((8aS,12S)-3-fluoro-8a-methyl-1,2,6b,7,8,8a,10,12,12a,12b-decahydronaphtho[2′,1′:4,5]indeno[1,2-c]pyrazol-12-yl)-N-(6-methylpyridazin-3-yl)propanamide], the “Rabbit placenta inhibition % @100 nM” value in experiment [1] is on record as 67%. For the same molecule, the inhibition at 1 µM in experiment [2] was found to be 3%. Moreover, the inhibition at 0.1 µM in experiment [3] was found to be 87%.

As to `C[C@]12CCC3c4ccc(F)cc4CCC3C1[C@H](CCC(=O)Nc1cccnn1)c1c[nH]nc12` (stereo partly drawn) [Compound 114, 3-((8aS,12S)-4-fluoro-8a-methyl-1,2,6b,7,8,8a,10,12,12a,12b-decahydronaphtho[2′,1′:4,5]indeno[1,2-c]pyrazol-12-yl)-N-(pyridazin-3-yl)propanamide], in experiment [1], the “Rabbit placenta inhibition % @100 nM” value was 43%. Also, the inhibition at 1 µM in experiment [2] is -1%. In addition, in experiment [3], the inhibition at 0.1 µM was found to be 53%.

For the molecule `Cc1ccc(NC(=O)CC[C@@H]2c3c[nH]nc3[C@@]3(C)CCC4c5ccccc5CCC4C23)nn1` (stereo partly drawn) [Compound 195, 3-((8aS,12S)-8a-methyl-1,2,6b,7,8,8a,10,12,12a,12b-decahydronaphtho[2′,1′:4,5]indeno[1,2-c]pyrazol-12-yl)-N-(6-methylpyridazin-3-yl)propanamide], the “Rabbit placenta inhibition % @100 nM” value in experiment [1] was determined as 61%. Also, in experiment [2], the inhibition at 1 µM was determined as 10%. In addition, the inhibition at 0.1 µM in experiment [3] was 70%.

Consider `CN(CC1CC1)C(=O)CC[C@@H]1c2c[nH]nc2[C@@]2(C)CCC3c4cccc(F)c4CCC3C12` (stereo partly drawn) [Compound 60, N-(cyclopropylmethyl)-3-((8aS,12S)-3-fluoro-8a-methyl-1,2,6b,7,8,8a,10,12,12a,12b-decahydronaphtho[2′,1′:4,5]indeno[1,2-c]pyrazol-12-yl)-N-methylpropanamide], for which the “Rabbit placenta inhibition % @100 nM” value in experiment [1] was 16%. In experiment [2], the inhibition at 1 µM was found to be 9%. Further, in experiment [3], the inhibition at 0.1 µM is 93%.

Regarding `CN(CC1CC1)C(=O)CC[C@@H]1c2c[nH]nc2[C@@]2(C)CCC3c4ccccc4CCC3C12` (stereo partly drawn) [Compound 174, N-(cyclopropylmethyl)-N-methyl-3-((8aS,12S)-8a-methyl-1,2,6b,7,8,8a,10,12,12a,12b-decahydronaphtho[2′,1′:4,5]indeno[1,2-c]pyrazol-12-yl)propanamide], in experiment [1], the “Rabbit placenta inhibition % @100 nM” value is given as 14%. In addition, the inhibition at 1 µM in experiment [2] came to 10%. For the same molecule, the inhibition at 0.1 µM in experiment [3] was 88%.

Consider `CN1CCC(N2CCN(C(=O)CC[C@@H]3c4c[nH]nc4[C@@]4(C)CCC5c6cccc(F)c6CCC5C34)CC2)CC1` (stereo partly drawn) [Compound 75, 3-((8aS,12S)-3-fluoro-8a-methyl-1,2,6b,7,8,8a,10,12,12a,12b-decahydronaphtho[2′,1′:4,5]indeno[1,2-c]pyrazol-12-yl)-1-(4-(1-methylpiperidin-4-yl)piperazin-1-yl)propan-1-one], for which the “Rabbit placenta inhibition % @100 nM” value in experiment [1] is listed as 15%. Moreover, in experiment [2], the inhibition at 1 µM was 2%. Also, the inhibition at 0.1 µM in experiment [3] is 71%.

Consider `Cc1nnc(NC(=O)CC[C@@H]2c3c[nH]nc3[C@@]3(C)CCC4c5cccc(F)c5CCC4C23)o1` (stereo partly drawn) [Compound 66, 3-((8aS,12S)-3-fluoro-8a-methyl-1,2,6b,7,8,8a,10,12,12a,12b-decahydronaphtho[2′,1′:4,5]indeno[1,2-c]pyrazol-12-yl)-N-(5-methyl-1,3,4-oxadiazol-2-yl)propanamide], for which the “Rabbit placenta inhibition % @100 nM” value in experiment [1] turned out to be 39%. The inhibition at 1 µM in experiment [2] is 3%. In experiment [3], the inhibition at 0.1 µM was 74%.

Turning to `CC(C)(C)c1cc(NC(=O)CC[C@@H]2c3c[nH]nc3[C@@]3(C)CCC4c5cccc(F)c5CCC4C23)no1` (stereo partly drawn) [Compound 213, N-(5-(tert-butyl)isoxazol-3-yl)-3-((8aS,12S)-3-fluoro-8a-methyl-1,2,6b,7,8,8a,10,12,12a,12b-decahydronaphtho[2′,1′:4,5]indeno[1,2-c]pyrazol-12-yl)propanamide], the “Rabbit placenta inhibition % @100 nM” value in experiment [1] is reported as 25%. Further, the inhibition at 1 µM in experiment [2] worked out at 10%. In addition, the inhibition at 0.1 µM in experiment [3] amounted to 93%.

Consider `C[C@]12CCC3c4cccc(F)c4CCC3C1[C@H](CCC(=O)Nc1nncs1)c1c[nH]nc12` (stereo partly drawn) [Compound 81, 3-((8aS,12S)-3-fluoro-8a-methyl-1,2,6b,7,8,8a,10,12,12a,12b-decahydronaphtho[2′,1′:4,5]indeno[1,2-c]pyrazol-12-yl)-N-(1,3,4-thiadiazol-2-yl)propanamide], for which, in experiment [1], the “Rabbit placenta inhibition % @100 nM” value turned out to be 31%. Besides, the inhibition at 1 µM in experiment [2] came out at 3%. In experiment [3], the inhibition at 0.1 µM is 81%.
